Laboratory results published in US5166198A, “Antiviral phosphonylalkoxy purines” (Beecham p.l.c., priority 1989, dated 1992).
Values after ≈ are worked out from the molar mass of the structure shown.

How the values were obtained:
Type in all cases: cell-based
[1] = tested on: visna virus (strain K184); test: CPE Inhibition Test (Established Monolayer) for Lentiviruses (in SCP cells); settings: Visna-maedi virus, read-out: MIC Visna Virus (minimum concentration giving complete protection of the cell monolayers)
Protocol: 3. CPE Inhibition Test (Established Monolayer) for Lentiviruses
3×10^4 sheep choroid plexus (SCP) cells were plated into individual wells of a 96 well microtitre plate in 100 μl of Eagle's MEM with Hanks' salts containing 10% heat inactivated foetal calf serum (FCS). When monolayers had become established (after 1 or 2 days growth) they were washed with 200 μl of maintenance medium (Eagle's MEM with Hanks' salts containing 0.5% FCS) and infected with 100 μl of visna virus (strain K184) in maintenance medium (30 TCID50 /ml). Test samples were diluted with maintenance medium in further 96 well microtitre plates over the range 200-0.06 μg/ml by 3-fold dilution steps. 100 μl of the diluted samples was then transferred directly onto virus-infected monolayers (final concentration range therefore […]) and incubated at in a humidified atmosphere containing 5% CO2 until virus-induced CPE was maximal in the untreated virus-infected controls (usually 12-14 days). The plates were fixed with formal saline and stained with crystal violet. Virus-induced CPE was then scored microscopically and the minimum concentration of sample giving complete protection of the cell monolayers (MIC) determined.

[2] = tested on: varicella zoster virus (VZV; Ellen strain); test: Plaque Reduction Test for Varicella Zoster-Virus (in MRC-5 cells); settings: Human alphaherpesvirus 3, MRC5; Ellen strain in MRC-5 cells
Protocol: 2. Plaque Reduction Test for Varicella Zoster-Virus
(§1) MRC-5 cells were grown to confluence in 24 well multi-dishes (well diameter=1.5 cm). The drained cell monolayers were each infected with approximately 50 infectious particles of varicella zoster virus (VZV; Ellen strain) in 100 μl of phosphate-buffered saline. The virus was adsorbed for 1 hour at room temperature. After adsorption, residual inoculum was removed from each well and replaced with 0.5 ml of Eagle's MEM containing 5% heat-inactivated foetal calf serum and 0.9% agarose (A37). Once the agarose had set, dilutions of the test compound, which had been prepared in Eagle's MEM (containing 5% heat-inactivated foetal calf serum), were added, each well receiving 0.5 ml of liquid overlay. The test compound was diluted to give the following series of concentrations: 200, 60, 20, 6 . . . 0.06 μg/ml; final concentrations in the assay ranged, therefore, between 100 μg/ml and 0.03 μg/ml. The infected cultures were incubated at 37° C. in a humidified atmosphere of 5% CO2 until plaques were clearly visible (5 or 6 days).
(§2) Cultures from 1 and 2 were fixed in formal saline, the agarose overlays were carefully washed off, and then the cell monolayers were stained with carbol fuchsin. A stereo microscope was used to count plaques. The IC50 (concentration of drug which inhibits the number of plaques formed by 50% relative to the number of plaques observed in virus control monolayers) of the test compound was calculated. In addition, the monolayers were examined for evidence of drug-induced cytotoxicity; the minimum concentration at which cytotoxicity occurs was recorded.

[3] = tested on: herpes simplex virus 2 (HSV-2; strain MS); test: Plaque Reduction Test for Herpes Simplex Virus 2 (in MRC-5 cells); settings: Human alphaherpesvirus 2, MRC5; MS strain in MRC-5 cells; read-out: IC50 Herpes Simplex virus Type 2
Protocol: (§3) 1. Plaque Reduction Test for Herpes Simplex Viruses 1 and 2.
as §1, with “Cells (Vero or MRC-5)” for “MRC-5 cells”, “herpes simplex” for “varicella zoster”, “1 (HSV-1; strain HFEM) or herpes simplex virus 2 (HSV-2; strain MS)” for “(VZV; Ellen strain)”, “newborn” for “heat-inactivated foetal”, “(2” for “(5”, “3 days for Vero cells, usually 1 day for MRC-5 cells).” for “6 days).”
as §2

[4] = tested on: herpes simplex virus 1 (HSV-1; strain HFEM); test: Plaque Reduction Test for Herpes Simplex Virus 1 (in Vero cells); settings: Human alphaherpesvirus 1, read-out: IC50 Herpes Simplex virus Type 1
Protocol: as §3
as §1, with “Cells (Vero or MRC-5)” for “MRC-5 cells”, “herpes simplex” for “varicella zoster”, “1 (HSV-1; strain HFEM) or herpes simplex virus 2 (HSV-2; strain MS)” for “(VZV; Ellen strain)”, “newborn” for “heat-inactivated foetal”, “(2” for “(5”, “3 days for Vero cells, usually 1 day for MRC-5 cells).” for “6 days).”
as §2

| SMILES | MIC [1] | IC50 [2] | IC50 [3] | IC50 [4] |
| --- | --- | --- | --- | --- |
| Nc1nc2c(ncn2OCCCP(=O)(O)O)c(=O)[nH]1 [Example 1, 9-(3-Phosphonopropoxy)guanine] | 3 µg/mL (≈ 10.4 µM) | 73 µg/mL (≈ 252 µM) | > 100 µg/mL | > 100 µg/mL |
| Nc1nc2c(ncn2OCCCCP(=O)(O)O)c(=O)[nH]1 [Example 3, 9-(4-Phosphonobutoxy)guanine] | 1 µg/mL (≈ 3.3 µM) | 6 µg/mL (≈ 19.8 µM) | 23 µg/mL (≈ 75.9 µM) | 62 µg/mL (≈ 204 µM) |
| Nc1nc(N)c2ncn(OCCCCP(=O)(O)O)c2n1 [Example 5, 2,6-Diamino-9-(4-phosphonobutoxy)purine] | 10 µg/mL (≈ 33.1 µM) | 17 µg/mL (≈ 56.2 µM) | > 100 µg/mL | > 100 µg/mL |
| Nc1ncnc2c1ncn2OCCCCP(=O)(O)O [Example 7, 9-(4-Phosphonobutoxy)adenine] | 100 µg/mL (≈ 348 µM) | > 100 µg/mL | > 100 µg/mL | > 100 µg/mL |
| Nc1ncnc2c1ncn2OC(CO)CCP(=O)(O)O (stereo not shown) [Example 11] | 30 µg/mL (≈ 98.9 µM) | > 100 µg/mL | > 100 µg/mL | > 100 µg/mL |
| Nc1nc2c(ncn2OCC(O)CCP(=O)(O)O)c(=O)[nH]1 (stereo not shown) [Example 13, 9-(2-Hydroxy-4-phosphonobutoxy)guanine] | 10 µg/mL (≈ 31.3 µM) | 29 µg/mL (≈ 90.8 µM) | > 100 µg/mL | > 100 µg/mL |
| Nc1ncnc2c1ncn2OCC(O)CCP(=O)(O)O (stereo not shown) [Example 15, 9-(2-Hydroxy-4-phosphonobutoxy)adenine] | 100 µg/mL (≈ 330 µM) | > 100 µg/mL | > 100 µg/mL | > 100 µg/mL |
| Nc1nc2c(ncn2OC(CO)CCP(=O)(O)O)c(=O)[nH]1 (stereo not shown) [Example 16, 9-[1-(Hydroxymethyl)-3-phosphonopropoxy]guanine] | 100 µg/mL (≈ 313 µM) | > 100 µg/mL | > 100 µg/mL | > 100 µg/mL |
| Nc1nc2c(ncn2OCC(CO)CCP(=O)(O)O)c(=O)[nH]1 (stereo not shown) [Example 18, 9-[2-(Hydroxymethyl)-4-phosphonobutoxy]guanine] | 1 µg/mL (≈ 3 µM) | 5 µg/mL (≈ 15 µM) | > 100 µg/mL | > 100 µg/mL |
| Nc1nc(N)c2ncn(OCC(CO)CCP(=O)(O)O)c2n1 (stereo not shown) [Example 20] | 10 µg/mL (≈ 30.1 µM) | 17 µg/mL (≈ 51.2 µM) | > 100 µg/mL | > 100 µg/mL |
